Test results reported in the Kinase Knowledgebase extract (Sharma et al. 2016).
pIC50: −log10 of the molar value.

Each molecule was assayed against EGFR (UniProt P00533). Details: not given.
Sequence of EGFR (P00533 whole entry, looked up): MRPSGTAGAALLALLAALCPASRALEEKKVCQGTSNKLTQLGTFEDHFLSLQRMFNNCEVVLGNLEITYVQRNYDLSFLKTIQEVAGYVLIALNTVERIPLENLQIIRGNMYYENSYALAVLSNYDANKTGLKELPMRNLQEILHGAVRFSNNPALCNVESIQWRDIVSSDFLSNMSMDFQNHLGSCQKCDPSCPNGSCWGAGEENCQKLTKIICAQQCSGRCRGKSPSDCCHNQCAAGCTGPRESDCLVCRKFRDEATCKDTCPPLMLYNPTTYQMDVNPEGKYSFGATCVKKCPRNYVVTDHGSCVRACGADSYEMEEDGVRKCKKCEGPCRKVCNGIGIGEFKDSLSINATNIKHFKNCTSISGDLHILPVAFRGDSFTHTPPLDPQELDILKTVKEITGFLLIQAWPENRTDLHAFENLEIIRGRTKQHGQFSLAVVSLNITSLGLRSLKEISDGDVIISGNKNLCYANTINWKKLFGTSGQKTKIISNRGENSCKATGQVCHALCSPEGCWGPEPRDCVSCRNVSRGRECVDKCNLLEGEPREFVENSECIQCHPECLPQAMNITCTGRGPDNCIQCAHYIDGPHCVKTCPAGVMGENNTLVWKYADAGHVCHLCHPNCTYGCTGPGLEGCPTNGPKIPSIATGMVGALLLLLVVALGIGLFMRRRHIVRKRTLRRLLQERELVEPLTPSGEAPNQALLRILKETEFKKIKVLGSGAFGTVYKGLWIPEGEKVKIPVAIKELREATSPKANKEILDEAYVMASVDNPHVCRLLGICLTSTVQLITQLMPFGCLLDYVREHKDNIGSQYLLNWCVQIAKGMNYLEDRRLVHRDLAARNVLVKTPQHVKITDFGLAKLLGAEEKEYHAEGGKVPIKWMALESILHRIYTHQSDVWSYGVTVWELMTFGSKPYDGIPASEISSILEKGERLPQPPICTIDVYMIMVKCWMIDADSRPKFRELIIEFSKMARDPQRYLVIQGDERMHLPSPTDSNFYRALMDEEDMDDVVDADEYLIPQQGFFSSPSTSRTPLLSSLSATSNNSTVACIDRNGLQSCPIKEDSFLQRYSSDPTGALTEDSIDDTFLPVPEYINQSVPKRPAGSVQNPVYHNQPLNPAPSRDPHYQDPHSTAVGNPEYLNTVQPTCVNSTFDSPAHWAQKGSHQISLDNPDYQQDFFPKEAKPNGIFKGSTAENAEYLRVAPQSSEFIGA
Molecule `COc1cc2c(Nc3cccc(Cl)c3F)ncnc2cc1O[C@@H]1CCN(C(=O)C2CCC(=O)N2)C1` (stereo partly drawn) has a pIC50 of 7.39.

What follows are molecules tested against EGFR (human) (UniProt P00533). Details: kb epidermoid nasopharynx.
Sequence of EGFR (human) (P00533 whole entry, looked up): as above
`COCC(=O)N1CCC(Oc2cc3ncnc(Nc4cccc(Cl)c4F)c3cc2OC)CC1` was tested, and the pIC50 was 7.26.
With `COCCN1CCN(Cc2cc3c(Nc4cccc(Cl)c4F)ncnc3cc2OC)C(C(N)=O)C1` (stereo not drawn) the pIC50 was 6.80.
Molecule `COc1cc2ncnc(Nc3ccc(F)c(Cl)c3)c2cc1CN1CCC[C@@H]1C(=O)NCC#N` has a pIC50 of 6.84.
In the case of `COCCOCC(=O)N1CCC(Oc2cc3ncnc(Nc4cccc(Cl)c4F)c3cc2OC)CC1`, the pIC50 was 6.95.
With `COc1cc2c(Nc3cccc(Cl)c3F)ncnc2cc1OC1CN(C(=O)[C@H](C)O)C1` the pIC50 was 7.15.
In the case of `COc1cc2ncnc(Nc3cccc(Cl)c3F)c2cc1CN1CSC[C@H]1C(N)=O`, the pIC50 was 7.30.
Molecule `COCCC(=O)N1CCC(Oc2cc3ncnc(Nc4cccc(Cl)c4F)c3cc2OC)CC1` has a pIC50 of 7.08.
`COc1cc2c(Nc3cccc(Cl)c3F)ncnc2cc1OC1CCN(C(=O)CCO)CC1` gave a pIC50 of 6.96.
Work on `COc1cc2c(Nc3cccc(Cl)c3F)ncnc2cc1O[C@@H]1CCN(C(=O)C2CCC(=O)N2)C1` (stereo partly drawn) yielded a pIC50 of 6.40.
Molecule `COc1cc2c(Nc3cccc(Cl)c3F)ncnc2cc1OC1CCN(C(=O)CO)CC1` has a pIC50 of 7.43.
`COCC(=O)N1CC[C@@H](Oc2cc3ncnc(Nc4cccc(Cl)c4F)c3cc2OC)C1` was tested, and the pIC50 was 6.92.
`COc1cc2c(Nc3cccc(Cl)c3F)ncnc2cc1OC1CN(C(=O)[C@@H](C)O)C1` showed a pIC50 of 7.32.
